Where “and” joins values, the source holds several entries; their conditions need not be identical. Equal entries are not always repeated. Where two headings read alike, the source gives them in different places. One block for each compound: values may come before it.
Key:
PfLysRS [1] = target: T1, PfLysRS (Plasmodium falciparum, UniProt Q8IDJ8); assay: Thermal shift assay; type: binding; conditions: for ΔTm of PfLysRS / ΔTm at 200 µM: in the presence of L-lysine
T1 construct: PfLysRS (77–583) was constructed in the vector pET20b, with a C-terminal 6×His tag; 6xHis (C); made in house; host or cells: E. coli BL21 (DE3)
T1 sequence (Q8IDJ8 entry or part of it): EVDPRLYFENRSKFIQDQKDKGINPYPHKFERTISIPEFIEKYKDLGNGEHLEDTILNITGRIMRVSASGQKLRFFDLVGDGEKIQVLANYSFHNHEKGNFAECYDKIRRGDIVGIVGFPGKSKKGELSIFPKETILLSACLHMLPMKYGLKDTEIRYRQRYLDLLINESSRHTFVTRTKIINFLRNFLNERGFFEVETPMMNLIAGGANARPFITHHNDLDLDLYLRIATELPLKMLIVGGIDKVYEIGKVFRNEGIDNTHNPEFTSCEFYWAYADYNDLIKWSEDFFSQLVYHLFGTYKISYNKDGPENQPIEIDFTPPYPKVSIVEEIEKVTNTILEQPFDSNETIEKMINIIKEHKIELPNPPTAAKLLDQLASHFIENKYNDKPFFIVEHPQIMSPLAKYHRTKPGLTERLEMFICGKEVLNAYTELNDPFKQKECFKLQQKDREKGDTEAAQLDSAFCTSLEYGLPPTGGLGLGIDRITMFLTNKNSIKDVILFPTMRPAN
Protocol: PfLysRS protein was prepared at 10 μM concentration in a buffer containing 20 mM Tris pH 8.0, 200 mM NaCl, 500 μM L-lysine, and 200 μM Compound. Aliquots (18 µL) were added to a 96-well PCR plate and incubated at ambient temperature for 10 min. SYPRO Orange dye (Sigma) was diluted in the assay buffer containing 20 mM Tris pH 8.0 and 200 mM NaCl to a 40× concentration, and 2 µL of the 40× dye solution was added to the PCR plate to bring the final assay volume to 20 µL. After complete mixing, the final solutions were heated from 25 to 90 °C at a rate of 0.015 °C per sec, and fluorescence signals were monitored by QuantStudio 3 (Applied Biosystems by Thermo Fisher Scientific).

[2] = tested on: erythrocytic-stage P. falciparum 3D7 parasites; assay: In vitro Plasmodium growth assay; type: cell-based, Plasmodium falciparum; conditions: for HillSlope (best-fit value): Plasmodium falciparum 3D7; for LogIC50 (best-fit value): Plasmodium falciparum 3D7, log of nM; for IC50: Plasmodium falciparum 3D7, source data, read-out: IC50 (best-fit value); for EC50: Plasmodium falciparum, 3D7, 72 h
Protocol: Parasites were cultured in human O+ erythrocytes according to standard procedures. To prepare the >80% ring stage parasites, asynchronous cultures of parasites were pretreated with 5% sorbitol, and P. falciparum strain 3D7 at the mid-ring stage (6–10 h post-invasion) was used to test antimalarial effects in 96-well plates. Parasites were incubated in a 96-well plate with compound containing 1% parasitemia and, 2% hematocrit for a total volume of 200 μL. […] A relevant DMSO concentration was used as a negative control, and cultured erythrocytes without Plasmodium served as a positive control. The parasites were allowed to grow for 72 h at 37 °C with 5% CO2, 5% O2, and 90% N2. After 72 h, 100 μL of lysis buffer (0.12 mg·mL^−1 Saponin, 0.12% Triton X-100, 30 mM Tris-HCl pH 8.0, and 7.5 mM EDTA) with 5× SYBR Green I (Invitrogen; supplied in 10000× concentration) was added to each well of the plate. The plates were then incubated for 2 h in the dark prior to reading the fluorescence signal at 485 nm excitation and 535 nm emission. The percentage of inhibition was calculated by (NC-fluorescence) × 100/(NC-PC).

ALK = target: T2, ALK (Homo sapiens, UniProt Q9UM73); assay: ATP hydrolysis assay (Kinase-Glo) on ALK; type: biochemical
T2 construct: The plasmid pCDNA3.1_8×His-tev-ALK (kinase domain, 1068–1410) was constructed; 8xHis (N); TEV site (N); made in house; host or cells: Expi293 cells (transient transfection)
T2 sequence (Q9UM73 1068-1410): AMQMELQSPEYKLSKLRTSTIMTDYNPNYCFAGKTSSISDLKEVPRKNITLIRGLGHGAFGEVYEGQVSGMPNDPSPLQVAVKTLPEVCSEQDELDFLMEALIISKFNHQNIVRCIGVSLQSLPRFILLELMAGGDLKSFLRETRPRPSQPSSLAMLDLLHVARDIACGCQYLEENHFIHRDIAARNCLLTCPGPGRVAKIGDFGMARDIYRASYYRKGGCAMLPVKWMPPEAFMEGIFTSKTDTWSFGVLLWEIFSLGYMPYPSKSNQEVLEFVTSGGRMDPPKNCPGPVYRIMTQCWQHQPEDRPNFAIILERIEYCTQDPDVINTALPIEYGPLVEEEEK
Protocol: (§1) The ATP hydrolysis assays were based on Kinase-Glo luminescent Kit (Promega). The experiment was carried out in Corning 384-well white flat bottom microplates. The buffer in the reaction contains 25 mM Hepes pH 7.4, 140 mM NaCl, 40 mM MgCl2, 30 mM KCl, 1 mM TCEP, 0.1 mg·mL^−1 BSA, and 0.004% Tween-20. The compounds were diluted to different concentrations with a 5-fold gradient.
For ALK assays, DMSO was added into negative control wells. 100 nM ALK in 2.5 μL Hepes buffer was mixed with compounds and incubated for 10 min. Then 5 μL substrate (2 μM ATP) was added to start the reaction at 37 °C and incubated for 6 h.
(§2) When the reaction reaches the planned time, 10 μL diluted Kinase-Glo reagent (1/50 diluted with a buffer containing 50 mM Tris pH 7.5 and 5% glycerol) was added and incubated for 15 min. Luminescence was measured on the Magellan plate reader (Tecan) and nonlinear regression was performed with Prism (GraphPad).

HsLysRS = target: T3, HsLysRS (Homo sapiens, UniProt Q15046); assay: ATP hydrolysis assay (Kinase-Glo) on HsLysRS; type: biochemical
T3 construct: HsLysRS (70–581) was constructed in the vector pET20b with a C-terminal 6×His tag; 6xHis (C); made in house; host or cells: E. coli (pET20b; 'purified similarly' to PfLysRS, which was expressed in BL21 (DE3))
T3 sequence (Q15046 70-581): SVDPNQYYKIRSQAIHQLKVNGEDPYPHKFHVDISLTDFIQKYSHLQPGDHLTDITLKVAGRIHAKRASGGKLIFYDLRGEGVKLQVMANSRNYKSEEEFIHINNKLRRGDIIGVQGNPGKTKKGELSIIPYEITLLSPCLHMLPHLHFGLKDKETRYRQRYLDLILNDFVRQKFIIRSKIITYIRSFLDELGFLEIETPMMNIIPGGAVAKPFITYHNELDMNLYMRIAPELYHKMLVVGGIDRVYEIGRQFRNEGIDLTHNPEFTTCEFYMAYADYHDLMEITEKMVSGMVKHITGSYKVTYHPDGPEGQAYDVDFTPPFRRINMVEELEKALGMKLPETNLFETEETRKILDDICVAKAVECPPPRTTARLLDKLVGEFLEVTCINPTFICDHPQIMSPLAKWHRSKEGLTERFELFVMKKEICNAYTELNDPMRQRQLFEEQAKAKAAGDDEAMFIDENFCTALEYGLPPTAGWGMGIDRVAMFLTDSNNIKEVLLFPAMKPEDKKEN
Protocol: as §1
(§3) For LysRS assays, DMSO was added into negative control wells and L-lysine was removed in positive control wells. 100 nM LysRS in 2.5 μL Hepes buffer was mixed with compounds and incubated for 10 min. Then 5 μL substrate mixture (2 μM ATP, 10 μM L-lysine and 31 nM pyrophosphatase) was added to start the reaction at 37 °C and incubated for 6 h.
as §2

PfLysRS [3] = target: T1, PfLysRS; assay: ATP hydrolysis assay (Kinase-Glo) on PfLysRS; type: biochemical
Protocol: as §1, §3, §2

[4] = P. falciparum 3D7, Log(Concentration)/nM 3.193, single repeats
[5] = P. falciparum 3D7, Log(Concentration)/nM 3.496, single repeats
[6] = P. falciparum 3D7, Log(Concentration)/nM 3.796, single repeats
[7] = P. falciparum 3D7, Log(Concentration)/nM 4.097, single repeats
[8] = P. falciparum 3D7, Log(Concentration)/nM 4.398, single repeats
[9] = P. falciparum 3D7, Log(Concentration)/nM 4.699, single repeats
[10] = P. falciparum 3D7, Log(Concentration)/nM 5.000, single repeats
[11] = +Lysine, sheet Figure 6B, in °C (unit assumed)

Compound: COc1cc(N2CCC(N3CCN(C)CC3)CC2)ccc1Nc1ncnc(Nc2ccccc2C2C=CCCC2)n1 (centres unmarked) [Compound 31]
ΔTm of PfLysRS (PfLysRS [1]): 2.0 °C

Compound: COc1cc(N2CCC(N3CCN(C)CC3)CC2)ccc1Nc1ncnc(Nc2ccccc2C2CCCCC2)n1 [Compound 32]
ΔTm of PfLysRS (PfLysRS [1]): 4.1 °C

Compound: COc1ccc(C(F)(F)F)cc1Nc1ncnc(Nc2ccccc2S(=O)(=O)C(C)C)n1 [Compound 33]
ΔTm of PfLysRS (PfLysRS [1]): -0.1 °C

Compound: COC(=O)c1ccc(OC)c(Nc2ncnc(Nc3ccccc3S(=O)(=O)C(C)C)n2)c1 [Compound 34]
% Inhibition ([2]; P. falciparum 3D7, Log(Concentration)/nM 2.290, single repeats): 1.182% and -0.03693% and -1.145%
% Inhibition ([2]; P. falciparum 3D7, Log(Concentration)/nM 2.592, single repeats): 1.736% and -0.03693% and 4.616%
% Inhibition [2, 4]: 62.22% and 58.01% and 53.91%
% Inhibition [2, 5]: 92.69% and 87.92% and 85.93%
% Inhibition [2, 6]: 98.34% and 94.68% and 94.24%
% Inhibition [2, 7]: 98.78% and 97.23% and 96.34%
% Inhibition [2, 8]: 101.2% and 100.6% and 98.23%
% Inhibition [2, 9]: 99.67% and 99.22% and 96.9%
% Inhibition [2, 10]: 94.68% and 96.01% and 94.24%
HillSlope (best-fit value) [2]: 2.802
LogIC50 (best-fit value) [2]: 3.133
IC50 [2]: 1.36 µM
EC50 [2]: 1.36 ± 0.04 µM
ΔTm at 200 µM (PfLysRS [1]): 7.9 °C

Compound: COc1ccc(Nc2ncnc(Nc3ccccc3S(=O)(=O)C(C)C)n2)c(OC)c1 [Compound 35]
ΔTm of PfLysRS (PfLysRS [1]): 6.4 °C

Compound: COc1ccc(OC)c(Nc2ncnc(Nc3ccccc3S(=O)(=O)CCNC(=O)[C@@H](N)CCCCN)n2)c1 [Compound 36K2]
IC50 (ALK; read-out: IC50 against ALK): > 109 µM
IC50 (HsLysRS; read-out: IC50 against HsLysRS): 31 µM
Tm of PfLysRS, Average (PfLysRS [1]; [11]): 50.650
Tm of PfLysRS, single repeat (PfLysRS [1]; [11]): 50.665 and 50.973 and 50.296
IC50 (PfLysRS [3]; read-out: IC50 against PfLysRS): 0.365 µM

Compound: COc1ccc(OC)c(Nc2ncnc(Nc3ccccc3S(=O)(=O)CCCCCNC(=O)[C@@H](N)CCCCN)n2)c1 [Compound 36K5]
IC50 (ALK; read-out: IC50 against ALK): > 66.8 µM
IC50 (HsLysRS; read-out: IC50 against HsLysRS): 22 µM
△Tm of PfLysRS (PfLysRS [1]; +Lysine, sheet Figure 6B): 10.740
Tm of PfLysRS, Average (PfLysRS [1]; [11]): 55.760
Tm of PfLysRS, single repeat (PfLysRS [1]; [11]): 55.867 and 55.929 and 55.806 and 55.437
IC50 (PfLysRS [3]; read-out: IC50 against PfLysRS): 2.77 µM

Compound: CC(C)S(=O)(=O)c1ccccc1Nc1ncnc(Nc2ccccc2S(=O)(=O)C(C)C)n1 [Compound 37]
ΔTm of PfLysRS (PfLysRS [1]): 0.5 °C

Compound: COc1ccc(C)cc1Nc1ncnc(Nc2ccccc2S(=O)(=O)C(C)C)n1 [Compound 39]
ΔTm of PfLysRS (PfLysRS [1]): 4.1 °C

Compound: COc1ccc([N+](=O)[O-])cc1Nc1ncnc(Nc2ccccc2S(=O)(=O)C(C)C)n1 [Compound 40]
ΔTm of PfLysRS (PfLysRS [1]): 2.5 °C

Compound: COc1ccc(F)cc1Nc1ncnc(Nc2ccccc2S(=O)(=O)C(C)C)n1 [Compound 41]
ΔTm of PfLysRS (PfLysRS [1]): 1.9 °C

Compound: COc1ccc(OC(F)(F)F)cc1Nc1ncnc(Nc2ccccc2S(=O)(=O)C(C)C)n1 [Compound 42]
ΔTm of PfLysRS (PfLysRS [1]): 1.5 °C

More lines, main results first:

IC50 (HsLysRS; read-out: IC50 against HsLysRS): 44 µM
ΔTm at 200 µM (PfLysRS [1]): 10.7 °C
Compound: COc1cnc(OC)c(Nc2ncnc(Nc3ccccc3S(=O)(=O)C(C)C)n2)c1 [Compound 36a]
% Inhibition ([2]; P. falciparum 3D7, Log(Concentration)/nM 2.893, single repeats): 14.91%
% Inhibition [2, 4]: 32.52% and 24.14%
% Inhibition [2, 5]: 30.61% and 34.32%
% Inhibition [2, 6]: 39.42% and 74.11%
% Inhibition [2, 7]: 57.98% and 94.48%
% Inhibition [2, 8]: 81.01% and 104.5%
% Inhibition [2, 9]: 93% and 107%
% Inhibition [2, 10]: 88.65% and 105.6%
HillSlope (best-fit value) [2]: 1.181
LogIC50 (best-fit value) [2]: 3.762
IC50 [2]: 5.78 µM
EC50 [2]: 5.78 ± 1.73 µM

ΔTm of PfLysRS (PfLysRS [1]): 0.1 °C
Compound: COc1ccc(OC)c(Nc2cccc(Nc3ccccc3S(=O)(=O)C(C)C)n2)c1 [Compound 36b]

ΔTm of PfLysRS (PfLysRS [1]): 0 °C
Compound: COc1ccc(OC)c(Nc2cncc(Nc3ccccc3S(=O)(=O)C(C)C)n2)c1 [Compound 36c]

ΔTm of PfLysRS (PfLysRS [1]): −0.2 °C
Compound: COc1ccc(OC)c(Nc2cccc(Nc3ccccc3S(=O)(=O)C(C)C)c2)c1 [Compound 36d]

ΔTm of PfLysRS (PfLysRS [1]): 3.1 °C
Compound: COc1ccc(OC)c(Nc2cc(Nc3ccccc3S(=O)(=O)C(C)C)ncn2)c1 [Compound 36e]

ΔTm of PfLysRS (PfLysRS [1]): 2.4 °C
Compound: COc1ccc(OC)c(Nc2nccc(Nc3ccccc3S(=O)(=O)C(C)C)n2)c1 [Compound 36f]

HillSlope (best-fit value) (ALK; ALK): 0.6894
LogIC50 (best-fit value) (ALK; ALK, log of nM): 2.857
IC50 (ALK; ALK, source data, read-out: IC50 (best-fit value)): 0.719 µM
IC50 (ALK; read-out: IC50 against ALK): 0.719 ± 0.182 µM
HillSlope (best-fit value) (HsLysRS; HsLysRS): 1.205
% Inhibition (HsLysRS; HsLysRS, Log(Concentration)/nM 2.505, single repeats): 3.343% and 6.292% and 8.061%
% Inhibition (HsLysRS; HsLysRS, Log(Concentration)/nM 3.204, single repeats): -0.8065% and 1.795% and 3.658%
% Inhibition (HsLysRS; HsLysRS, Log(Concentration)/nM 3.903, single repeats): 7.774% and 9.643% and 10.78%
% Inhibition (HsLysRS; HsLysRS, Log(Concentration)/nM 4.602, single repeats): 27.95% and 31.1% and 35.27%
% Inhibition (HsLysRS; HsLysRS, Log(Concentration)/nM 5.301, single repeats): 65.61% and 74.02% and 86.84%
% Inhibition (HsLysRS; HsLysRS, Log(Concentration)/nM 6.000, single repeats): 101.8% and 97.59% and 99.58%
LogIC50 (best-fit value) (HsLysRS; HsLysRS, log of nM): 4.923
IC50 (HsLysRS; HsLysRS, source data, read-out: IC50 (best-fit value)): 83.7 µM
IC50 (HsLysRS; read-out: IC50 against HsLysRS): 84 µM
Tm of PfLysRS, Average (PfLysRS [1]; +Lysine): 48.001 °C
ΔTm at 200 µM (PfLysRS [1]): 7.9 °C
HillSlope (best-fit value) (PfLysRS [3]; PfLysRS): 0.6952
LogIC50 (best-fit value) (PfLysRS [3]; PfLysRS, log of nM): 2.755
IC50 (PfLysRS [3]; PfLysRS, source data, read-out: IC50 (best-fit value)): 0.568 µM
IC50 (PfLysRS [3]; read-out: IC50 against PfLysRS): 0.568 µM
Compound: COc1ncccc1Nc1ncnc(Nc2ccccc2S(=O)(=O)C(C)C)n1 [Compound 38a]
Tm of PfLysRS, single repeat (PfLysRS [1]; +Lysine): 48.109 °C and 48.140 °C and 47.986 °C and 47.770 °C

Tm of PfLysRS, Average (PfLysRS [1]; +Lysine): 42.100 °C
ΔTm at 200 µM (PfLysRS [1]): 2 °C
Compound: COc1cccnc1Nc1ncnc(Nc2ccccc2S(=O)(=O)C(C)C)n1 [Compound 38b]
Tm of PfLysRS, single repeat (PfLysRS [1]; +Lysine): 42.223 °C and 42.193 °C and 42.039 °C and 41.946 °C

Reference: publication PMC11189516, “Structure-guided conversion from an anaplastic lymphoma kinase inhibitor into Plasmodium lysyl-tRNA synthetase selective inhibitors” (Communications Biology, 2024)
